In one experiment the target is T1, hEP4 (Homo sapiens, UniProt P35408).
T1 construct: expressed in transfected cells; host or cells: HEK-293 cells (plasma membrane fraction)
In words: Radioligand binding, [3H]PGE2, HEK-293 cells stably expressing EP4 receptors. The note with it: Table 1, second part; read-out: hEP4 Ki. Here is the method:
(§1) HEK-293 cells stably expressing the human or feline FP receptor, or EP1, EP2, or EP4 receptors were washed with TME buffer, scraped from the bottom of the flasks, and homogenized for 30 sec using a Brinkman PT 10/35 polytron. TME buffer was added to achieve a final 40 ml volume in the centrifuge tubes (the composition of TME is 100 mM TRIS base, 20 mM MgCl2, […]; 10N HCl is added to achieve a pH of 7.4).
(§2) The cell homogenate was centrifuged at 19000 r.p.m. for 20 min at 4° C. using a Beckman Ti-60 rotor. The resultant pellet was resuspended in TME buffer to give a final 1 mg/ml protein concentration, as determined by Biorad assay. Radioligand binding competition assays vs. [^3H—]17 phenyl PGF2. (5 nM) were performed in a 100 μl volume for 60 min. Binding reactions were started by adding plasma membrane fraction. The reaction was terminated by the addition of 4 ml ice-cold TRIS-HCl buffer and rapid filtration through glass fiber GF/B filters using a Brandel cell harvester. The filters were washed 3 times with ice-cold buffer and oven dried for one hour.
[^3H—] PGE2 (specific activity 180 Ci mmol) was used as the radioligand for EP receptors. [^3H] 17-phenyl PGF2α was employed for FP receptor binding studies. […] A 200 μl assay volume was used. Incubations were for 60 min at 25° C. and were terminated by the addition of 4 ml of ice-cold 50 mM TRIS-HCl, followed by rapid filtration through Whatman GF/B filters and three additional 4 ml washes in a cell harvester (Brandel). Competition studies were performed using a final concentration of 5 nM [^3H]-PGE2, or 5 nM [^3H] 17-phenyl PGF2α and non-specific binding determined with 10^−5M of unlabeled PGE2, or 17-phenyl PGF2α, according to receptor subtype studied.

The target of another experiment is T2, hEP2/Gqs5 (Homo sapiens, UniProt P43116).
T2 construct: expressed in transfected cells; host or cells: HEK-293(EBNA) cells
In words: FLIPR calcium signal, HEK-293(EBNA) cells. The note with it: Table 1, second part; read-out: hEP2 flipr EC50. Type of experiment: cell-based. Here is the method:
(§3) HEK-293(EBNA) cells, stably expressing one type or subtype of recombinant human prostaglandin receptors (prostaglandin receptors expressed: hDP/Gqs5; hEP1; hEP2/Gqs5; hEP3A/Gqi5; hEP4/Gqs5; hFP; hIP; hTP), were cultured in 100 mm culture dishes in high-glucose DMEM medium containing 10% fetal bovine serum, 2 mM 1-glutamine, 250 μg/ml geneticin (G418) and 200 μg/ml hygromycin B as selection markers, and 100 units/ml penicillin G, 100 μg/ml streptomycin and 0.25 μg/ml amphotericin B.
(§4) Cells were seeded at a density of 5×10^4 cells per well in Biocoat® Poly-D-lysine-coated black-wall, clear-bottom 96-well plates (Becton-Dickinson) and allowed to attach overnight in an incubator at 37° C. Cells were then washed two times with HBSS-HEPES buffer (Hanks Balanced Salt Solution without bicarbonate and phenol red, 20 mM HEPES, pH 7.4) using a Denley Cellwash plate washer (Labsystems). After 45 minutes of dye-loading in the dark, using the calcium-sensitive dye Fluo-4 AM at a final concentration of 2 μM, plates were washed four times with HBSS-HEPES buffer to remove excess dye leaving 100 μl in each well. Plates were re-equilibrated to 37° C. for a few minutes.
(§5) Cells were excited with an Argon laser at 488 nm, and emission was measured through a 510-570 nm bandwidth emission filter (FLIPR™, Molecular Devices, Sunnyvale, Calif.). Drug solution was added in a 50 μl volume to each well to give the desired final concentration. The peak increase in fluorescence intensity was recorded for each well. On each plate, four wells each served as negative (HBSS-HEPES buffer) and positive controls (standard agonists: BW245C (hDP); PGE2 (hEP1; hEP2/Gqs5; hEP3A/Gqi5; hEP4/Gqs5); PGF2. (hFP); carbacyclin (hIP); U-46619 (hTP), depending on receptor). The peak fluorescence change in each drug-containing well was then expressed relative to the controls.
(§6) Compounds were tested in a high-throughput (HTS) or concentration-response (CoRe) format. In the HTS format, forty-four compounds per plate were examined in duplicates at a concentration of 10^−5 M. To generate concentration-response curves, four compounds per plate were tested in duplicates in a concentration range between 10^−5 and 10^−11 M. The duplicate values were averaged. In either, HTS or CoRe format each compound was tested on at least 3 separate plates using cells from different passages to give an n≧3.

A further experiment concerns the target T3, hEP4/Gqs5 (Homo sapiens, UniProt P35408).
T3 construct: expressed in transfected cells; host or cells: HEK-293(EBNA) cells
The experiment can be described thus: FLIPR calcium signal, HEK-293(EBNA) cells. The experiment is classed as cell-based. The note with it: Table 1, second part; read-out: hEP4 flipr EC50. Here is the method: as §3, §4, §5, §6

Another experiment concerns the target T4, hIP (Homo sapiens, UniProt P43119).
T4 construct: expressed in transfected cells; host or cells: HEK-293(EBNA) cells
The experiment can be described thus: FLIPR calcium signal, HEK-293(EBNA) cells. Type of experiment: cell-based. Particulars: Table 1, second part; quantity not given, values match functional data (EC50) of first part; read-out: Other Receptors hIP. Here is the method: as §3, §4, §5, §6

Experiment [1] addresses T5, hEP2 (Homo sapiens, UniProt P43116). The experiment can be described thus: hEP2 cAMP functional assay. The experiment is classed as cell-based. Particulars: Table 1, second part.
Experiment [2] has as its target T5, hEP2. In words: Competition binding, [3H]PGE2, HEK 293 cells stably expressing human EP2 receptors. On the set-up: expressed in transfected cells; host or cells: HEK 293 cells (membranes or whole cells). The note with it: Table 1, second part; read-out: hEP2 Ki. Here is the method: Competition binding experiments were performed in a medium containing Hank's balanced salt solution, Hepes 20 mM, pH 7.3, membranes (˜60 μg protein) or 2×10^5 cells from HEK 293 cells stably expressing human EP2 receptors, [^3H]PGE2 (10 nM) and various concentrations of test compounds in a total volume of 300 μL. Reaction mixtures were incubated at 23° C. for 60 min, and were filtered over Whatman GF/B filters under vacuum. Filters were washed three times with 5 ml ice-cold buffer containing 50 mM Tris/HCl (pH 7.3). Non-specific binding was estimated in the presence of excess unlabeled PGE2 (10 μM). Binding data fitted to the binding model for a single class of binding sites, using nonlinear regression analysis. IC50 values thus obtained were converted to Ki using the equation of Ki=(IC50/(1+[L]/KD) where [L] represents PGE2 concentration (10 nM) and KD the dissociation constant for [^3H]PGE2 at human EP2 receptors (40 nM).
as §1, §2
[^3H—] PGE2 (specific activity 180 Ci mmol) was used as the radioligand for EP receptors. [^3H] 17-phenyl PGF2α was employed for FP receptor binding studies. Binding studies employing EP1, EP2, EP4 and FP receptors were performed in duplicate in at least three separate experiments. A 200 μl assay volume was used. Incubations were for 60 min at 25° C. and were terminated by the addition of 4 ml of ice-cold 50 mM TRIS-HCl, followed by rapid filtration through Whatman GF/B filters and three additional 4 ml washes in a cell harvester (Brandel). Competition studies were performed using a final concentration of 5 nM [^3H]-PGE2, or 5 nM [^3H] 17-phenyl PGF2α and non-specific binding determined with 10^−5M of unlabeled PGE2, or 17-phenyl PGF2α, according to receptor subtype studied.

The values below come from US7635716B2, “Substituted cyclopentanes or cyclopentanones as therapeutic agents” (Allergan, Inc., priority 2005, dated 2009).

Molecules are shown by their SMILES.

T5 sequence (P43116 whole entry): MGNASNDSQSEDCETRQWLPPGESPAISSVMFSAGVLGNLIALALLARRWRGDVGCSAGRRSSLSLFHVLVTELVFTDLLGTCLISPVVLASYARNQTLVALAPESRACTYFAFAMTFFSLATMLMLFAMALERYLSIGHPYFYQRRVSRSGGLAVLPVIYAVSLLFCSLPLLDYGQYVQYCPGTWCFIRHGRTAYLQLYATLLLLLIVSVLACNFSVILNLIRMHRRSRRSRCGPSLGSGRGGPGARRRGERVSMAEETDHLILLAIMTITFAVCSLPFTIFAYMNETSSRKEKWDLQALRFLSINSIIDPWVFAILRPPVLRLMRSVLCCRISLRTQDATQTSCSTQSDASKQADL
T2 sequence (P43116 whole entry): as above
T4 sequence (P43119 whole entry): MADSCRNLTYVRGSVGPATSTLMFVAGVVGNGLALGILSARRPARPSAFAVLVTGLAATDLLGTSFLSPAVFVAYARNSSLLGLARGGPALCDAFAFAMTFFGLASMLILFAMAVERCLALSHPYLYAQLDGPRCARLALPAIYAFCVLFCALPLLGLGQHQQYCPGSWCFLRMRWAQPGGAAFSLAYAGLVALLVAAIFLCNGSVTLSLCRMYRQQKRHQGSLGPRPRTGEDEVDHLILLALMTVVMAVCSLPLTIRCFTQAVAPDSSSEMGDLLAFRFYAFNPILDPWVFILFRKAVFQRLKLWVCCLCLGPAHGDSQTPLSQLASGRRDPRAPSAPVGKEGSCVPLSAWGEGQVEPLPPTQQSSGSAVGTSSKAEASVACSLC
T1 sequence (P35408 whole entry): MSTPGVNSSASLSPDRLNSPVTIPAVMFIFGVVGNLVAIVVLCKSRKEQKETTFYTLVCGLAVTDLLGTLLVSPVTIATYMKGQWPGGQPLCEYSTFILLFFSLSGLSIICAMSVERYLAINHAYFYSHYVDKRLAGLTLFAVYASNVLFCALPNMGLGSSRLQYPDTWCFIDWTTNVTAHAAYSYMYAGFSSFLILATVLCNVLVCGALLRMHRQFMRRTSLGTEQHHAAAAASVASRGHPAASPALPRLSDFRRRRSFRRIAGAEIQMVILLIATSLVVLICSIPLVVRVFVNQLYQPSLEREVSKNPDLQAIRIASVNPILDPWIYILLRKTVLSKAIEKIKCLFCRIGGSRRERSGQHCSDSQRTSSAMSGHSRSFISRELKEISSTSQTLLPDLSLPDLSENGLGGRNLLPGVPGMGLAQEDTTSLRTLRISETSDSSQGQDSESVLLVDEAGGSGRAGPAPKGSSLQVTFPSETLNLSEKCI
T3 sequence (P35408 whole entry): as above

For orientation: Ki means a measure of affinity in units of concentration, obtained from inhibition or displacement. Turning to `O=Cc1cccc(OC[C@@H]2[C@@H](C/C=C\CCCC(=O)O)[C@H](Cl)C[C@H]2O)c1` [Example 48, (Z)-7-[(1R,2S,3R,5R)-5-Chloro-2-(3-formyl-phenoxymethyl)-3-hydroxy-cyclopentyl]-hept-5-enoic acid], the figures for the inhibition constant (Ki) on hEP4 and on hEP2 [2] were 14700 nM and 291 nM, respectively. Further, the EC50 was 192 nM on hEP2/Gqs5, over 10000 nM at hEP4/Gqs5, 2690 nM on hIP and 41 nM at hEP2 [1].
